Columns and labels:
[1] = Testing the stability of a TCO compound under chemical conditions (HPLC-MS/PDA, GC-MS); format: physicochemical; details: for 1 h
Method: (§1) The feasibility to use the TCO group as a protective group in chemistry was studied by testing the stability of a range of TCO derivatives as model compounds under various conditions, and following the deprotection upon reaction with a tetrazine derivative under these conditions.
Typical Example for Testing the Stability of a TCO Compound
The TCO stock solution (10 μL 25 mM; 2.5*10^−7 mol) was added to a solution of the specific condition (100 μL). The mixture was stirred at the specific condition for a certain amount of time, and then the fate of the TCO compound was monitored by HPLC-MS/PDA analysis and/or GC-MS analysis, and an estimation of its stability was made.
(§2) A) in acetonitrile with 5 equivalents of pyridine per TCO at 20° C.
(§3) B) in acetonitrile with 5 equivalents of DIPEA per TCO at 20° C.
(§4) C) in acetonitrile with 5 equivalents of piperidine per TCO at 20° C.
(§5) D) in acetonitrile with 5 equivalents of n-butylamine per TCO at 20° C.
(§6) E) in acetonitrile with 5 equivalents of 2-mercaptoethanol per TCO at 20° C.
(§7) F) in tetrahydrofuran with 5 equivalents of triphenylphosphine per TCO at 20° C.
(§8) G) in acetonitrile with 5 equivalents of DCC per TCO at 20° C.
(§9) H) in acetonitrile with 5 equivalents of PyBOP per TCO at 20° C.
(§10) I) in acetonitrile with 1 v % of formic acid at 20° C.
(§11) J) in chloroform at 20° C.
(§12) K) in chloroform with 1 v % of formic acid at 20° C.
(§13) L) in chloroform with 1 v % of trifluoroacetic acid at 20° C.
(§14) M) in chloroform with 10 v % of trifluoroacetic acid at 20° C.
(§15) N) in chloroform with 33 v % of trifluoroacetic acid at 20° C.
(§16) Z) in 25% acetonitrile in water at 20° C.

[2] = Testing the feasibility of the deprotection of TCO compounds upon reaction with tetrazine; details: for 1 h
Method: as §1
Typical Example for Testing the Feasibility of the Deprotection
The TCO stock solution (10 μL 25 mM in acetonitrile; 2.5*10^−7 mol) was added to a solution of the specific condition (100 μL). A solution of 3,6-dimethyl-1,2,4,5-tetrazine (8, 20 μL 25 mM in acetonitrile; 5.0*10^−7 mol) was added, and the mixture was stirred at the specific condition for a certain amount of time. The reaction was monitored by HPLC-MS/PDA analysis and/or GC-MS analysis, and the percentage of deprotection was estimated.
as §2, §3, §4, §5, §6, §7, §8, §9, §10, §11, §12, §13, §14, §15, §16

[3] = Binding of TCO-protected doxorubicin to beads coated with BSA-tetrazine and doxorubicin release (HPLC); details: PBS, 37° C.
Method: Tetrazine functionalization of a BSA-coated particle has been described in J. Nucl. Med. 2013, 54, 1989-1995. Briefly, a solution of BSA (bovine serum albumin; 0.7 mg) in PBS was mixed with a 10 mg/mL solution of a bis-pyridyl-tetrazine-NHS derivative in DMF (35 μL, 30 eq. with respect to BSA) and the pH was adjusted to 9.0 with 1 M sodium carbonate buffer. The solution (125 μL total) was incubated at room temperature for 30 min then the unreacted tetrazine was removed from the solution by using a Zeba desalting spin column (7 kDa MW cut-off) pre-washed with PBS. UV measurements confirmed the presence of 12 tetrazine moieties per BSA molecule.
The eluate containing BSA-tetrazine in PBS was added to a 350 μL suspension of polystyrene beads (Polybeads, 0.5 μm, Polysciences) in H2O and the resulting suspension was incubated at +4° C. for 1 h on an end-over-end rotating mixer (10 rpm). After incubation, the suspension of beads coated with BSA-tetrazine was centrifuged at 12,000 rpm for 4 min. The supernatant was carefully removed and the pellet was resuspended in 1.5 mL PBS by using a tip sonicator at low power (Sonics VibraCell, 4×5 sec pulses, 40% of power). The centrifuging-resuspension cycle was repeated 2 times, after which the bead pellet was resuspended in 200 μL PBS and reacted with 7 nmol of TCO-protected doxorubicin (TCO-3-Doxorubin, 1 mM in DMSO).
After 5 min incubation at 37° C. in a thermomixer (350 rpm), the beads were removed by centrifugation and the supernatant was analyzed by HPLC on an Agilent Techologies system (1100 series) equipped with a fluorescence detector with λhex=485 nm and λem=590 nm. The sample was loaded on an Eclipse XDB-C18 column (5 μm, 4.6×150 mm^2, Agilent) which was eluted isocratically with 30% (v/v) acetonitrile in H2O containing 0.1% TFA (v/v) at 1 mL/min. HPLC analysis of the supernatant confirmed that ca. 75% of TCO-doxorubicin was bound to the beads.
The bead pellet was resuspended in 1.5 mL PBS and centrifuged twice to eliminate unbound TCO-doxorubicin. Subsequently, the beads were resuspended in 400 μL PBS and incubated at 37° C. At various times, aliquots of the supernatant were analyzed by HPLC. The chromatographic profiles (FIG. 2) show release of free doxorubicin (Rt=6.2 min) from the beads with time (>45% after 3 h; complete within 24 h).

[4] = A) in acetonitrile with 5 equivalents of pyridine per TCO at 20° C.
[5] = B) in acetonitrile with 5 equivalents of DIPEA per TCO at 20° C.
[6] = G) in acetonitrile with 5 equivalents of DCC per TCO at 20° C.
[7] = I) in acetonitrile with 1 v % of formic acid at 20° C.
[8] = Z) in 25% acetonitrile in water at 20° C.
[9] = tetrazine 8; A) in acetonitrile with 5 equivalents of pyridine per TCO at 20° C.
[10] = tetrazine 8; B) in acetonitrile with 5 equivalents of DIPEA per TCO at 20° C.
[11] = tetrazine 8; G) in acetonitrile with 5 equivalents of DCC per TCO at 20° C.
[12] = tetrazine 8; I) in acetonitrile with 1 v % of formic acid at 20° C.
[13] = tetrazine 8; J) in chloroform at 20° C.
[14] = tetrazine 8; Z) in 25% acetonitrile in water at 20° C.

Compound | Stability of TCO [1, 4] | Stability of TCO [1, 5] | Stability of TCO [1, 6] | Stability of TCO [1, 7] | Stability of TCO [1, 8] | Deprotection (%) [2, 9] [%] | Deprotection (%) [2, 10] [%] | Deprotection (%) [2, 11] [%] | Deprotection (%) [2, 12] [%] | Deprotection (%) [2, 14] [%] | further results
O=C(NCc1cccc2ccccc12)OC1/C=C/CCCCC1 (stereo not shown) | stable stable stable stable stable stable stable stable stable stable stable stable stable stable | stable stable stable stable stable stable stable stable stable stable stable stable stable stable | stable stable stable stable stable stable stable stable stable stable stable stable stable stable | stable stable stable stable stable stable stable stable stable stable stable stable stable stable | stable stable stable stable stable stable stable stable stable stable stable stable stable stable | 87 | 58 | 74 | 93 | 85 | Stability of TCO ([1]; C) in acetonitrile with 5 equivalents of piperidine per TCO at 20° C.): stable stable stable stable stable stable stable stable stable stable stable stable stable stable; Stability of TCO ([1]; D) in acetonitrile with 5 equivalents of n-butylamine per TCO at 20° C.): stable stable stable stable stable stable stable stable stable stable stable stable stable stable; Stability of TCO ([1]; E) in acetonitrile with 5 equivalents of 2-mercaptoethanol per TCO at 20° C.): stable stable stable stable stable stable stable stable stable stable stable stable stable stable; Stability of TCO ([1]; F) in tetrahydrofuran with 5 equivalents of triphenylphosphine per TCO at 20° C.): stable stable stable stable stable stable stable stable stable stable stable stable stable stable; Stability of TCO ([1]; H) in acetonitrile with 5 equivalents of PyBOP per TCO at 20° C.): stable stable stable stable stable stable stable stable stable stable stable stable stable stable; Stability of TCO ([1]; J) in chloroform at 20° C.): stable stable stable stable stable stable stable stable stable stable stable stable stable stable; Stability of TCO ([1]; K) in chloroform with 1 v % of formic acid at 20° C.): stable stable stable stable stable stable stable stable stable stable stable stable stable stable; Stability of TCO ([1]; L) in chloroform with 1 v % of trifluoroacetic acid at 20° C.): stable stable stable stable stable stable stable stable stable stable stable stable stable stable; Stability of TCO ([1]; M) in chloroform with 10 v % of trifluoroacetic acid at 20° C.): stable stable stable stable stable stable stable stable stable stable stable stable stable stable; Deprotection (%) ([2]; tetrazine 8; C) in acetonitrile with 5 equivalents of piperidine per TCO at 20° C.): 48%; Deprotection (%) ([2]; tetrazine 8; D) in acetonitrile with 5 equivalents of n-butylamine per TCO at 20° C.): 47%; Deprotection (%) ([2]; tetrazine 8; E) in acetonitrile with 5 equivalents of 2-mercaptoethanol per TCO at 20° C.): 67%; Deprotection (%) ([2]; tetrazine 8; F) in tetrahydrofuran with 5 equivalents of triphenylphosphine per TCO at 20° C.): 75%; Deprotection (%) ([2]; tetrazine 8; H) in acetonitrile with 5 equivalents of PyBOP per TCO at 20° C.): 74%; Deprotection (%) [2, 13]: 73%; Deprotection (%) ([2]; tetrazine 8; K) in chloroform with 1 v % of formic acid at 20° C.): 98%; Deprotection (%) ([2]; tetrazine 8; L) in chloroform with 1 v % of trifluoroacetic acid at 20° C.): 99%; Deprotection (%) ([2]; tetrazine 8; M) in chloroform with 10 v % of trifluoroacetic acid at 20° C.): 99%
O=C(Oc1ccc([N+](=O)[O-])cc1)OC1/C=C/CCCCC1 (stereo not shown) | stable | – | stable | stable | stable | 64 | 90 | 72 | 97 | 70 | Stability of TCO: hydrolysis [1, 5]: 19%
C1=C/C(OCc2ccccc2)CCCCC/1 (stereo not shown) | – | – | – | – | stable stable | – | – | – | – | 54 | Stability of TCO ([1]; J) in chloroform at 20° C.): stable stable; Deprotection (%) [2, 13]: 70%
O=C(Cc1ccccc1)C(C(=O)OC1/C=C/CCCCC1)c1ccccc1 (stereo not shown) | – | – | – | – | stable stable | – | – | – | – | 70 | Stability of TCO ([1]; J) in chloroform at 20° C.): stable stable; Deprotection (%) [2, 13]: 95%
COc1cccc2c1C(=O)c1c(O)c3c(c(O)c1C2=O)C[C@@](O)(C(=O)CO)C[C@@H]3O[C@H]1C[C@H](N)[C@H](O)[C@H](C)O1 [doxorubicin, reference compound] | – | – | – | – | – | – | – | – | – | – | time to complete release of free doxorubicin from the beads [3]: ≤ 24 h; release of free doxorubicin from the beads ([3]; after 3 h): > 45%
O=C(OC1/C=C/CCCCC1)c1ccc([N+](=O)[O-])cc1 (stereo not shown) [drawing 116] | stable | – | stable | stable | stable | 68 | 83 | 89 | 95 | 80 | Stability of TCO: hydrolysis [1, 5]: ~2%
O=C(OC1/C=C/CCCCC1)c1ccc([N+](=O)[O-])cc1 (stereo not shown) [drawing 118] | – | – | – | – | stable | – | – | – | – | 66 | –
C1=C/C(Oc2ccccc2)CCCCC/1 (stereo not shown) [drawing 120] | stable stable stable stable stable | stable stable stable stable stable | stable stable stable stable stable | stable stable stable stable stable | stable stable stable stable stable | 42 | 92 | 80 | 92 | 87 | –
C1=C/C(Oc2ccccc2)CCCCC/1 (stereo not shown) [drawing 122] | – | – | – | – | stable | – | – | – | – | 72 | –
Cc1cc(C)cc(NC(=O)OC2/C=C/CCCCC2)c1 (stereo not shown) [drawing 126] | stable stable stable stable | stable stable stable stable | stable stable stable stable | stable stable stable stable | – | 14 | 4 | 61 | 97 | – | –
Cc1cc(C)cc(NC(=O)OC2/C=C/CCCCC2)c1 (stereo not shown) [drawing 128] | stable stable stable stable | stable stable stable stable | stable stable stable stable | stable stable stable stable | – | 55 | 39 | 91 | 97 | – | –

— patent US10927139B2, “Chemically cleavable group” (Tagworks Pharmaceuticals B.V., priority 2012, dated 2021)
